Source: patent publication US4478844A, “Bradycardiac or analgesic 2-(N-(thienyl-2-methyl)-N-(2-fluoro-6-methyl-phenyl)-amino)-2-imidazolin e and salts thereof” (Boehringer Ingelheim KG, priority 1979, dated 1984)

How the values were obtained:
mouse [1] = assay: Analgesic activity, writhing test (mouse); type: in vivo
Protocol: (§1) The end product of Example 1, i.e. 2-[N-(2-fluoro-6-bromo-phenyl)-N-(thienyl-2-methyl)-amino]-2-imidazoline (A), and [N-2,6-dibromo-phenyl)-N-(thienyl-2-methyl)-amino]-2-imidazoline (B), disclosed in column 2, lines 47-48, of U.S. Pat. No. 3,937,717, were tested for analgesic activity and locomotion-inhibiting activity by the standard test methods described in the following literature references:
Analgesic activity: Ph. Linee, J. Pharmacol. (Paris) 3,4 513-515 (1972). Writhing test.

mouse [2] = assay: Locomotion-inhibiting activity (mouse); type: in vivo; settings: sc, read-out: Locomotion inhibition (mouse) ED50 s.c.
Protocol: as §1
Locomotion--inhibiting activity: K. Stockhaus et al., Committee on Problems of Drug Dependence (1970) 6890-6898 National Academy of Sciences.

[3] = po, read-out: Writhing test (mouse) ED50 p.o.
[4] = sc, read-out: Writhing test (mouse) ED50 s.c.

Fc1cccc(Br)c1N(Cc1cccs1)C1=NCCN1 [A, 2-[N-(2-fluoro-6-bromo-phenyl)-N-(thienyl-2-methyl)-amino]-2-imidazoline] was tested, and the ED50 (mouse [1]; [3]) was 0.28 mg/kg, the ED50 (mouse [1]; [4]) was 0.12 mg/kg and the ED50 (mouse [2]) was 0.13 mg/kg.

Brc1cccc(Br)c1N(Cc1cccs1)C1=NCCN1 [B] showed an ED50 (mouse [1]; [3]) of 0.6 mg/kg, an ED50 (mouse [1]; [4]) of 0.3 mg/kg and an ED50 (mouse [2]) of 0.6 mg/kg.
